Data: US6204005A, “Immunoassay for toxic congeners of polychlorinated biphenyls” (priority 1995, dated 2001)

Assays:
[1] = relative to 2,3,7,8-TCDD = 1.0; cited from earlier work
[2] = test system: Hapten VII sera (polyclonal antibodies); experiment: Sera direct EIA with Hapten VII sera and competitor enzyme conjugate; format: binding, mice; conditions: for Assay sensitivity versus Hapten VII enzyme conjugate based assay: in words, Table 6
Protocol: The competitors A-E and Hapten VII were conjugated to the enzyme, amino modified Horseradish Peroxidase (HRP) (horseradish peroxidase commercially available from Sigma Chemical Co. (No. P-6782), St. Louis, Mo.; amino modified per R. Hsiao and H. Royer, Archives Biochem. Biophys., 198, 379-385 (1979) to give 6-24 free amines), using the carbodiimide mediated carboxyl activation procedure described for Hapten VII in Example 24. Hapten and competitor load were determined by UV/Vis spectroscopy, also as described for Hapten VII.
The direct EIA (immoblized antibody and competitor enzyme conjugate) was performed as follows. Serum or monoclonal antibody supernatant stored at -20° C. was diluted 1,000-40,000 fold with PBS which contained 0.1% Tween-20. This solution was dispensed (500 ul) into donkey anti-mouse second antibody coated tubes (DAM Tubes commercially available from Millipore Corp., Bedford, Mass.) and incubated at room temperature overnight. The antisera solution was decanted from the tubes and the tubes washed 3 times with distilled water. Non-specific sites in the tubes were blocked with 600 ul of BSA blocking buffer (EIA Blocking Buffer commercially available from Millipore Corp., Bedford, Mass.) and incubated for 2 hours at room temperature or overnight at 4° C. The blocking buffer was decanted and the tubes allowed to dry under ambient room conditions for at least 2 hours. The assay was performed by adding 500 ul of assay diluent (1% methanol (v/v) and 0.005% Tween-20 (w/v) in distilled water) to the required number of tubes followed by 10 ul of a methanol solution of the analyte (PCB congener). After a 5 minute incubation at room temperature, the solution was decanted and the tubes rinsed 3-4 times with tap water. The horseradish peroxidase competitor or Hapten VII conjugates were diluted 1,000-60,000 fold from 2-5 mg/ml stock solutions in PBS with conjugate diluent (Enzyme Conjugate Diluent commercially available from Millipore Corp., Bedford, Mass.). The enzyme conjugate (200 ul) was added to the tubes followed by a 5 minute incubation at room temperature. The conjugate solution was decanted and the tubes rinsed 3-4 times with tap water. Enzyme substrate solution (500 ul, KPL No. 50-76-04 commercially available from KPL Laboratories, Gaithersburg, Md.) was added and the tubes were incubated at room temperature for 5-15 minutes. The enzyme reaction was stopped with the addition of 500 ul of 1N HCl. The OD of the solution was determined at 450 nm. The data was plotted using Log (Congener Concentration) versus B/Bo (B=Sample Absorbance, Bo=Sample Blank Absorbance).
The direct EIA (Method 19) was used to evaluate sera samples taken on day 120.

[3] = test system: antibody in serum immobilized on goat anti-rabbit second antibody coated tubes; experiment: Enzyme immunoassay (EIA) with HRP competitor or Hapten I conjugates, Aroclor 1248 analyte (Method D); format: binding; conditions: for Assay Response (I50): assay solution concentration of Aroclor 1248 producing 50% reduction in assay control signal, HRP conjugate of the listed competitor; for Relative Response: improvement in I50 sensitivity compared to homologous (Hapten I) based assay
Protocol: Serum stored at -20° C. was diluted 1,000-40,000 fold with PBS which contained 0.1% Tween-20. This solution was dispensed (500 μl) into goat anti-rabbit second antibody coated tubes (GAR Tubes commercially available from Millipore Corp., Bedford, Mass.) and incubated at room temperature overnight. The antisera solution was decanted from the tubes and the tubes were washed 3 times with distilled water. Non-specific sites in the tubes were blocked with 600 μl of a BSA blocking buffer (EIA Blocking Buffer commercially available from Millipore Corp., Bedford, Mass.) and incubated for 2 hours at room temperature or overnight at 4° C. The blocking buffer was decanted and the tubes allowed to dry under ambient room conditions for 2 hours or overnight. The assay was performed by adding 500 μl of assay diluent (1% methanol (v/v) and 0.005% Tween-20 (w/v) in distilled water) to the required number of tubes followed by 10 μl of a methanol solution which contained 0-50 ppm of Aroclor 1248. After a 5 minute incubation at room temperature, the solution was decanted and the tubes rinsed 3-4 times with tap water. The horseradish peroxidase-(HRP) competitor conjugate or Hapten I conjugates were diluted 100-100,000 fold from 2-5 mg/ml stock solutions in PBS with conjugate diluent (Enzyme Conjugate Diluent commercially available from Millipore Corp., Bedford, Mass.). Enzyme-competitor conjugate was added in 200 μl and the tubes were incubated at room temperature for 5 minutes. The conjugate solution was decanted and the tubes rinsed 3-4 times with tap water. Enzyme substrate solution (500 μl, KPL No. 50-76-04 commercially available from KPL Laboratories, Gaithersburg, Md.) was added and the tubes were incubated at room temperature for 3-15 minutes. The enzyme reaction was stopped with the addition of 500 μl of 1N HCl. The OD of the solution was determined at 450 nm and the I50 values were determined using a correlation of Log (Aroclor 1248 Concentration in the assay solution in parts per billion=ppb) versus B/Bo ratio where B=Sample Absorbance and Bo=Absorbance of the Blank Sample.
The competitors and Hapten I were conjugated to the enzyme, amino modified Horseradish Peroxidase (HRP) (horseradish peroxidase commercially available from Sigma Chemical Co. (No. P-6782), St. Louis, Mo.; amino modified per ref R. Hsiao and H. Royer, Archives Biochem. Biophysics, 198, 379-385 (1979) to give 6-24 free amines), using the carbodiimide mediated carboxyl activation procedure described for Hapten I in Example 5.
EIA analysis of Aroclor 1248 (Method D) was performed using horseradish peroxidase (HRP) Conjugates of the competitors illustrated in FIG. 4.

[4] = Table 7, Hapten VII sera and Competitor D direct EIA
[5] = Table 6, I50 of analyte 3,3',4,4'-tetrachlorobiphenyl with the listed competitor, Hapten VII sera

For `Clc1cc(-c2ccc(Cl)c(Cl)c2Cl)cc(Cl)c1Cl` [BZ No. 157, 2,3,3',4,4',5-hexa], the TEF [1] is given as 0.00002.

For `Clc1ccc(-c2cc(Cl)c(Cl)cc2Cl)c(Cl)c1` [2,2',4,4',5-pentachloro-], the TEF [1] is given as “less than 0.00001”.

For `Clc1ccc(-c2cc(Cl)c(Cl)cc2Cl)cc1Cl` [BZ No. 118, 2,3',4,4',5-penta], the TEF [1] is listed as 0.00.

For `Clc1ccc(-c2ccc(Cl)cc2)cc1` [4,4'-dichloro], the I50 [2, 4] was 4,300 ppb.

For `Clc1cc2c(cc1Cl)Oc1cc(Cl)c(Cl)cc1O2` [2,3,7,8-TCDD, 2,3,7,8-tetrachlorodibenzo-p-dioxin], the TEF [1] is given as 1.0.

In the case of `Clc1ccc(-c2cc(Cl)c(Cl)c(Cl)c2Cl)cc1` [BZ No. 114, 2,3,4,4',5-penta], the TEF [1] is listed as 0.0001.

In the case of `Clc1ccc(-c2cc(Cl)c(Cl)c(Cl)c2)c(Cl)c1` [BZ No. 123, 2,3',4,4',5'-penta], the TEF [1] is listed as 0.001.

In the case of `O=C(O)CCCSc1cc(Cl)ccc1Cl` [Competitor 17], the “Assay Response (I50)” value [3] is reported as 33 ppb and the “Relative Response” value [3] is reported as 18 fold.

In the case of `Clc1ccc(-c2ccc(Cl)c(Cl)c2Cl)cc1Cl` [BZ No. 105, 2,3,3',4,4'-penta], the TEF [1] is given as 0.001.

For `O=C(O)C=Cc1ccc(Cl)c(Cl)c1` [Competitor 14], the “Assay Response (I50)” value [3] was 64 ppb and the “Relative Response” value [3] was 9 fold.

For `O=C(O)CCCCCOc1ccc(-c2cc(Cl)c(Cl)cc2Cl)c(Cl)c1` [Hapten I, 6-(2,2',4',5'-Tetrachlorobiphenyloxy)-4-yl hexanoic acid], the “Assay Response (I50)” value [3] was 570 ppb.

In the case of `O=C(O)CCCOc1ccc(Cl)c(Cl)c1` [Competitor 16], the “Assay Response (I50)” value [3] is reported as 31 ppb and the “Relative Response” value [3] is reported as 18 fold.

In the case of `Clc1ccc(-c2cc(Cl)c(Cl)c(Cl)c2Cl)cc1Cl` [BZ No. 156, 2,3,3',4,4',5-hexa], the TEF [1] is given as 0.001.

In the case of `Clc1ccc(-c2cc(Cl)c(Cl)c(Cl)c2)cc1` [BZ No. 81, 3,4,4',5-tetra], the TEF [1] is listed as 0.01.

For `O=C(O)CCCC(=O)c1ccc(Cl)c(Cl)c1` [Competitor 12], the “Assay Response (I50)” value [3] was 23 ppb and the “Relative Response” value [3] was 24 fold.

With `O=C(O)CCCOc1ccc(Cl)cc1Cl` [Competitor 15] the “Assay Response (I50)” value [3] was 49 ppb and the “Relative Response” value [3] was 12 fold.

For `O=C(O)CCc1ccc(Cl)c(Cl)c1` [Competitor 9], the “Assay Response (I50)” value [3] was 47 ppb and the “Relative Response” value [3] was 12 fold.

In the case of `Clc1ccc(-c2ccc(Cl)cc2Cl)cc1` [2,4,4',trichloro-], the TEF [1] is given as “less than 0.00001”.

In the case of `O=C(O)CCCC(=O)c1ccc(Cl)c(Cl)c1` [Competitor D], the I50 [2, 5] is reported as 3 ppb and the “Assay sensitivity versus Hapten VII enzyme conjugate based assay” value [2] is reported as “significantly more sensitive”.

For `Clc1ccc(Cl)c(-c2cc(Cl)ccc2Cl)c1` [2,2',5,5'-tetrachloro], the I50 [2, 4] is given as > 20,000 ppb and the TEF [1] is given as “less than 0.00001”.

For `Clc1cc(Cl)c(-c2cc(Cl)c(Cl)c(Cl)c2)cc1Cl` [BZ No. 167, 2,3',4,4',5,5-hexa], the TEF [1] is listed as 0.001.

In the case of `O=C(O)CCCCc1cc(Cl)ccc1Cl` [Competitor 11], the “Assay Response (I50)” value [3] is reported as 18 ppb and the “Relative Response” value [3] is reported as 32 fold.

In the case of `O=C(O)CCCOc1ccc(Cl)c(Cl)c1` [Competitor B], the I50 [2, 5] is reported as 3.5 ppb and the “Assay sensitivity versus Hapten VII enzyme conjugate based assay” value [2] is reported as “significantly more sensitive”.

In the case of `Clc1ccc(-c2ccccc2Cl)cc1` [2,4'-dichloro-], the TEF [1] is listed as “less than 0.00001”.

For `Clc1ccc(Cl)c(-c2ccccc2Cl)c1` [2,2',5-trichloro-], the TEF [1] is listed as “less than 0.00001”.

In the case of `O=C(O)CCCSc1cc(Cl)ccc1Cl` [Competitor C], the I50 [2, 5] is reported as 1.5 ppb and the “Assay sensitivity versus Hapten VII enzyme conjugate based assay” value [2] is reported as “significantly more sensitive”.

For `O=C(O)CCCCCOc1ccc(-c2ccc(Cl)c(Cl)c2)cc1Cl` [Hapten VII, 6-(3,3',4'-Trichlorobiphenyloxy)-4-yl hexanoic acid], the I50 [2, 5] was 30-40 ppb.

In the case of `Clc1cc(-c2cc(Cl)c(Cl)c(Cl)c2Cl)cc(Cl)c1Cl` [BZ No. 189, 2,3,3',4,4',5,5'-hepta], the TEF [1] is listed as 0.001.

In the case of `O=C(O)CCCC(=O)Nc1ccc(Cl)c(Cl)c1` [Competitor 13], the “Assay Response (I50)” value [3] is reported as 2000 ppb and the “Relative Response” value [3] is reported as less than 1 fold.

For `Clc1cc(-c2cc(Cl)c(Cl)c(Cl)c2)cc(Cl)c1Cl` [BZ No. 169, 3,3',4,4',5,5-hexa], the TEF [1] is given as 0.05.
